Common to all, as to format: in vivo
One data set relates to Scirpus juncoides. Put plainly: Paddy herbicidal activity test. The settings on record: irrigated pot, treated at 3.5 leaf stage of Echinochloa crus-galli, 30 days at 30° C. The procedure: (§1) Rice paddy soil was filled into a 1/10000 are pot followed by the addition of suitable amounts of water and chemical fertilizer, kneading, seeding with Echinochloa crus-galli, Monochoria vaginalis and Scirpus juncoides and maintaining in an irrigated state at a water depth of 3 cm. Wettable powders of Target Compound (I) shown in Table 1 prepared in compliance with the preparation examples were diluted with a suitable amount of water, rice plants in the 2.0 leaf stage were transplanted during 3.5 leaf stage of Echinochloa crus-galli, and treated by dropping in chemical in the prescribed amount per 10 are using a pipette. After treating for 30 days in a glass greenhouse at an average atmospheric temperature of 30° C., the herbicidal efficacy thereof was investigated. Evaluation of herbicidal efficacy was carried out by comparing growth inhibition rate (%) with an untreated group, while evaluation of phytotoxicity was carried out by comparing growth inhibition rate (%) with the state of a complete eradication group, and were evaluated at 11 levels indicated below.

Another data set relates to Monochoria vaginalis. Put plainly: Paddy herbicidal activity test. The conditions noted are these: irrigated pot, treated at 3.5 leaf stage of Echinochloa crus-galli, 30 days at 30° C. The procedure: as §1
The next data set deals with Echinochloa crus-galli. As to the kind of experiment: Paddy herbicidal activity test. The conditions noted are these: irrigated pot, treated at 3.5 leaf stage of Echinochloa crus-galli, 30 days at 30° C. How it is done: as §1
Data set [1] concerns Digitaria ciliaris. Put plainly: Farming soil treatment test. The settings on record: soil surface spray prior to weed growth, 30 days at 30° C. The procedure:
(§2) Field soil was filled into a 1/6000 are pot followed by seeding with Digitaria ciliaris, Chenopodium album and Amaranthus retroflexus and covering with soil. Wettable powders of compounds of formula (I) shown in Table 1 prepared in compliance with the preparation examples were diluted with water to the prescribed amount of chemical and uniformly sprayed onto each soil surface layer using 100 liters of sprayed water per 10 are prior to weed growth following seeding. After treating for 30 days in a glass greenhouse at an average atmospheric temperature of 30° C., the herbicidal efficacy thereof was investigated. Evaluation of herbicidal efficacy was carried out in the same manner as the above-mentioned Test Example 1.

For data set [2], the system named is Amaranthus retroflexus. As to the kind of experiment: Farming soil treatment test. The settings on record: soil surface spray prior to weed growth, 30 days at 30° C. How it is done: as §2
Data set [3] concerns Chenopodium album. Put plainly: Farming soil treatment test. The conditions noted are these: soil surface spray prior to weed growth, 30 days at 30° C. How it is done: as §2
For data set [4], the system named is Digitaria ciliaris. As to the kind of experiment: Weed foliar treatment test (Test 3, 1.0 to 2.0 leaf stage). The conditions noted are these: foliar spray at 1.0 to 2.0 leaf stage of Digitaria ciliaris, 3 weeks at 25° C. How it is done:
(§3) Soil was filled into a 1/6000 are pot followed by seeding with Digitaria ciliaris, Chenopodium album and Amaranthus retroflexus, covering with soil, and cultivating in a glass greenhouse at an average atmospheric temperature of 25° C. Wettable powders of Target Compound (I) shown in Table 1 prepared in compliance with the preparation examples were diluted with water to the prescribed amount of chemical and uniformly sprayed onto the weeds using 150 liters of sprayed water per 10 are when Digitaria ciliaris had grown to the 1.0 to 2.0 leaf stage. After treating for 3 weeks in a glass greenhouse at an average atmospheric temperature of 25° C., the herbicidal efficacy thereof was investigated. Evaluation of herbicidal efficacy was carried out in the same manner as the above-mentioned Test Example 1.

Data set [5] concerns Amaranthus retroflexus. Described as above. The settings on record: foliar spray at 1.0 to 2.0 leaf stage of Digitaria ciliaris, 3 weeks at 25° C. The procedure: as §3
Data set [6] concerns Chenopodium album. The description is as above. The settings on record: foliar spray at 1.0 to 2.0 leaf stage of Digitaria ciliaris, 3 weeks at 25° C. The procedure:
as §3

Data set [7] relates to Digitaria ciliaris. Put plainly: Weed foliar treatment test (Test 4, 4.0 to 5.0 leaf stage). The settings on record: 10 g a.i./10 a; foliar spray at 4.0 to 5.0 leaf stage of Digitaria ciliaris (plant height 10 cm to 15 cm); 20 days at 25° C. How it is done: (§4) Field soil was filled into a 1/4500 are pot followed by seeding with Digitaria ciliaris and Galinsoga parviflora, covering with soil and cultivating in a glass greenhouse at an average atmospheric temperature of 25° C. Wettable powders of Target Compound (I) shown in Table 1 prepared in compliance with the preparation examples were diluted with water to the prescribed amount of chemical and uniformly sprayed onto the weeds using 100 liters of sprayed water per 10 are when Digitaria ciliaris had grown to the 4.0 to 5.0 leaf stage (plant height: 10 cm to 15 cm). After treating for 20 days in a glass greenhouse at an average atmospheric temperature of 25° C., the herbicidal efficacy thereof was investigated. Evaluation of herbicidal efficacy was carried out in the same manner as the above-mentioned Test Example 1.

The next data set concerns Galinsoga parviflora. The data set is described as above. The settings on record: 10 g a.i./10 a; foliar spray at 4.0 to 5.0 leaf stage of Digitaria ciliaris (plant height 10 cm to 15 cm); 20 days at 25° C. How it is done:
as §4

The subject of another data set is Oryza sativa. As to the kind of experiment: Paddy herbicidal activity test, phytotoxicity to transplanted rice. The conditions noted are these: rice transplanted at 2.0 leaf stage, 30 days at 30° C. The procedure:
as §1

From US10165776B2, “Substituted pyrazolylpyrazole derivative and use of same as herbicide” (KYOYU AGRI CO., LTD., priority 2015, dated 2019) come the findings set out here.

In the case of `N#Cc1cnn(-c2nn3c(c2Cl)CCCC3)c1NC(=O)CCc1ccccc1` [Compound 19], the “herbicidal efficacy, Scirpus juncoides” value in the data set on Scirpus juncoides (1 g a.i./10 a) and in the data set with Scirpus juncoides (5 g a.i./10 a) was 10 (10: 100%) throughout. Moreover, the “herbicidal efficacy, Monochoria vaginalis” value with Monochoria vaginalis (1 g a.i./10 a) and with Monochoria vaginalis (5 g a.i./10 a) was 10 (10: 100%) each time. Further, the “herbicidal efficacy, Echinochloa crus-galli” value is given as 9 (9: 90% to less than 100%) with Echinochloa crus-galli (1 g a.i./10 a) and 10 (10: 100%) in the data set with Echinochloa crus-galli (5 g a.i./10 a). In addition, the “herbicidal efficacy, Digitaria ciliaris” value with Digitaria ciliaris [1] (5 g a.i./10 a), in the data set on Digitaria ciliaris [1] (10 g a.i./10 a), in the data set with Digitaria ciliaris [4] (5 g a.i./10 a), with Digitaria ciliaris [4] (10 g a.i./10 a) and in the data set with Digitaria ciliaris [7] was 10 (10: 100%) in each case. Also, the “herbicidal efficacy, Amaranthus retroflexus” value in the data set with Amaranthus retroflexus [2] (5 g a.i./10 a), in the data set on Amaranthus retroflexus [2] (10 g a.i./10 a), in the data set on Amaranthus retroflexus [5] (5 g a.i./10 a) and in the data set on Amaranthus retroflexus [5] (10 g a.i./10 a) was 10 (10: 100%) throughout. The “herbicidal efficacy, Chenopodium album” value in the data set on Chenopodium album [3] (5 g a.i./10 a), in the data set on Chenopodium album [3] (10 g a.i./10 a), in the data set with Chenopodium album [6] (5 g a.i./10 a) and with Chenopodium album [6] (10 g a.i./10 a) was 10 (10: 100%) throughout. Also, the “herbicidal efficacy, Galinsoga parviflora” value with Galinsoga parviflora is 10 (10: 100%). Moreover, the “phytotoxicity, Oryza sativa” value in the data set with Oryza sativa (1 g a.i./10 a) was 0 (0 (exponent): 0% to less than 10% (growth inhibition rate)); in the data set with Oryza sativa (5 g a.i./10 a) it was 1 (1: 10% to less than 20%).
Turning to `O=C(Nc1c([N+](=O)[O-])cnn1-c1nn2c(c1Cl)CCCC2)c1ccccc1` [Control agent 2.19, reference compound], the “herbicidal efficacy, Scirpus juncoides” value is recorded as 1 (1: 10% to less than 20%) with Scirpus juncoides (1 g a.i./10 a) and 2 (2: 20% to less than 30%) in the data set with Scirpus juncoides (5 g a.i./10 a). Besides, the “herbicidal efficacy, Monochoria vaginalis” value in the data set with Monochoria vaginalis (1 g a.i./10 a) and in the data set with Monochoria vaginalis (5 g a.i./10 a) was 1 (1: 10% to less than 20%) in each case. Moreover, the “herbicidal efficacy, Echinochloa crus-galli” value with Echinochloa crus-galli (1 g a.i./10 a) is given as 3 (3: 30% to less than 40%); with Echinochloa crus-galli (5 g a.i./10 a), 4 (4: 40% to less than 50%). The “herbicidal efficacy, Digitaria ciliaris” value in the data set with Digitaria ciliaris [1] (5 g a.i./10 a) is listed as 0 (0 (exponent): 0% to less than 10% (growth inhibition rate)); in the data set with Digitaria ciliaris [1] (10 g a.i./10 a) it was 2 (2: 20% to less than 30%); in the data set with Digitaria ciliaris [4] (5 g a.i./10 a), 1 (1: 10% to less than 20%); with Digitaria ciliaris [4] (10 g a.i./10 a) it was 2 (2: 20% to less than 30%); in the data set with Digitaria ciliaris [7], 1 (1: 10% to less than 20%). The “herbicidal efficacy, Amaranthus retroflexus” value is listed as 1 (1: 10% to less than 20%) in the data set with Amaranthus retroflexus [2] (5 g a.i./10 a), 3 (3: 30% to less than 40%) in the data set with Amaranthus retroflexus [2] (10 g a.i./10 a), 4 (4: 40% to less than 50%) in the data set on Amaranthus retroflexus [5] (5 g a.i./10 a) and 4 (4: 40% to less than 50%) with Amaranthus retroflexus [5] (10 g a.i./10 a). The “herbicidal efficacy, Chenopodium album” value with Chenopodium album [3] (5 g a.i./10 a) is 3 (3: 30% to less than 40%); with Chenopodium album [3] (10 g a.i./10 a), 4 (4: 40% to less than 50%); in the data set with Chenopodium album [6] (5 g a.i./10 a) it was 4 (4: 40% to less than 50%); with Chenopodium album [6] (10 g a.i./10 a) it was 5 (5: 50% to less than 60%). The “herbicidal efficacy, Galinsoga parviflora” value with Galinsoga parviflora is 3 (3: 30% to less than 40%). Further, the “phytotoxicity, Oryza sativa” value with Oryza sativa (1 g a.i./10 a) and in the data set with Oryza sativa (5 g a.i./10 a) was 1 (1: 10% to less than 20%) throughout.
Regarding `N#Cc1cnn(-c2nn3c(c2Cl)CCCC3)c1NC(=O)c1ccccc1` [Control agent 4.192, reference compound], the “herbicidal efficacy, Scirpus juncoides” value in the data set on Scirpus juncoides (1 g a.i./10 a) is listed as 3 (3: 30% to less than 40%); in the data set on Scirpus juncoides (5 g a.i./10 a), 4 (4: 40% to less than 50%). Further, the “herbicidal efficacy, Monochoria vaginalis” value with Monochoria vaginalis (1 g a.i./10 a) is given as 1 (1: 10% to less than 20%); in the data set on Monochoria vaginalis (5 g a.i./10 a), 2 (2: 20% to less than 30%). In addition, the “herbicidal efficacy, Echinochloa crus-galli” value in the data set on Echinochloa crus-galli (1 g a.i./10 a) and in the data set with Echinochloa crus-galli (5 g a.i./10 a) was 4 (4: 40% to less than 50%) throughout. Also, the “herbicidal efficacy, Digitaria ciliaris” value with Digitaria ciliaris [1] (5 g a.i./10 a) was 0 (0 (exponent): 0% to less than 10% (growth inhibition rate)); in the data set with Digitaria ciliaris [1] (10 g a.i./10 a), 2 (2: 20% to less than 30%); in the data set on Digitaria ciliaris [4] (5 g a.i./10 a), 1 (1: 10% to less than 20%); with Digitaria ciliaris [4] (10 g a.i./10 a), 2 (2: 20% to less than 30%); in the data set with Digitaria ciliaris [7], 0 (0 (exponent): 0% to less than 10% (growth inhibition rate)). Further, the “herbicidal efficacy, Amaranthus retroflexus” value is 0 (0 (exponent): 0% to less than 10% (growth inhibition rate)) with Amaranthus retroflexus [2] (5 g a.i./10 a), 1 (1: 10% to less than 20%) with Amaranthus retroflexus [2] (10 g a.i./10 a), 3 (3: 30% to less than 40%) in the data set on Amaranthus retroflexus [5] (5 g a.i./10 a) and 4 (4: 40% to less than 50%) with Amaranthus retroflexus [5] (10 g a.i./10 a). Besides, the “herbicidal efficacy, Chenopodium album” value in the data set with Chenopodium album [3] (5 g a.i./10 a) is 2 (2: 20% to less than 30%); with Chenopodium album [3] (10 g a.i./10 a) it was 3 (3: 30% to less than 40%); in the data set on Chenopodium album [6] (5 g a.i./10 a), 4 (4: 40% to less than 50%); with Chenopodium album [6] (10 g a.i./10 a) it was 5 (5: 50% to less than 60%). In the data set on Galinsoga parviflora, the “herbicidal efficacy, Galinsoga parviflora” value is listed as 2 (2: 20% to less than 30%). Besides, the “phytotoxicity, Oryza sativa” value in the data set with Oryza sativa (1 g a.i./10 a) and in the data set on Oryza sativa (5 g a.i./10 a) was 1 (1: 10% to less than 20%) throughout.
